What all share (assay): Antibiotic MIC plates (resistance profile)
Assay type in all cases: cell-based

In test [1] the test system is Lactobacillus rhamnosus GG (ATCC 53103). The settings on record: median of two repetitions. The text has this: (§1) The protocol was adapted from Delgado et al. (2005). Minimum Inhibitory Concentration (MIC) Plate (# GPN3F) and Anaerobe MIC Plate (# AN02B) were used to determine the antibiotic sensitivity and resistance profile of MM19 and MM33 according to the instructions of the manufacturer (Trek Diagnostic Systems; Nova Century, Burlington, ON, Canada).
(§2) Lactococcus lactis subsp. lactis MM19, Pediococcus acidilactici MM33 and Lactobacillus rhamnosus GG (ATCC 53103) from frozen glycerol stock were first inoculated in Lactobacilli MRS and incubated at 37° C. for 18 h. 100 μl of this culture were further incubated under the same conditions. This second culture was then inoculated on a MRS agar plate and incubated at 37° C. for 48 h under anaerobic conditions using GasPak Plus system (BD BBL, Sparks, Md., USA).

For test [2], the system named is Lactococcus lactis subsp. lactis MM19. The settings on record: MM19, median of two repetitions.
Description: as §1, §2

For test [3], the system named is Pediococcus acidilactici MM33. Conditions: median of two repetitions.
Description: as §1, §2

Setting [4] is: Lacticaseibacillus rhamnosus, ATCC53103, L. rhamnosus GG, ANO2 plate, read-out: MIC.
Setting [5] is: Lactococcus lactis, ANO2 plate, read-out: MIC.
[6] abbreviates: Pediococcus acidilactici, MM33, MM33, ANO2 plate, read-out: MIC.
Where [7] appears, read: Lacticaseibacillus rhamnosus, ATCC53103, L. rhamnosus GG, GPN3F plate, read-out: MIC.
The mark [8] stands for this setting: Lactococcus lactis, GPN3F plate, read-out: MIC.
Where [9] appears, read: Pediococcus acidilactici, MM33, MM33, GPN3F plate, read-out: MIC.

≈ marks a conversion by molar mass, not a printed value. Read-outs that look alike come from different tables or passages of the source.

One may read the MIC as the smallest concentration in the dilution series that meets the test's criterion for growth inhibition. With `CO[C@@]1(NC(=O)Cc2cccs2)C(=O)N2C(C(=O)O)=C(COC(N)=O)CS[C@@H]21` [FOX, Cefoxitin], the MIC in test [1] (setting [4]), in test [2] (setting [5]) and in test [3] (setting [6]) was more than 32 µg/mL each time.
On to Gentamicin, for which the MIC in test [1] (L. rhamnosus GG, GPN3F plate) was less than 2 µg/mL; in test [2] (GPN3F plate) it was 2 to 4 µg/mL; in test [3] (MM33, GPN3F plate), less than 2 µg/mL.
Take `CC1(C)S[C@@H]2[C@H](NC(=O)[C@H](N)c3ccccc3)C(=O)N2[C@H]1C(=O)O` [AMP, Ampicillin]: the MIC was 1 µg/mL (≈ 2.86 µM) in test [1] (setting [4]); 1 µg/mL (≈ 2.86 µM) in test [1] (setting [7]); less than 0.5 µg/mL in test [2] (setting [5]); 0.12 to 0.25 µg/mL (≈ 0.343 to 0.715 µM) in test [2] (setting [8]); 4 µg/mL (≈ 11.4 µM) in test [3] (setting [6]); 2 µg/mL (≈ 5.72 µM) in test [3] (setting [9]).
As for Trimethoprim/Sulfamethoxazole [SXT], the MIC in test [1] (L. rhamnosus GG, GPN3F plate) was >4/76; in test [2] (GPN3F plate) it was >4/76; in test [3] (MM33, GPN3F plate) it was >4/76.
Take `CC[C@H]1OC(=O)[C@H](C)[C@@H](O[C@H]2C[C@@](C)(OC)[C@@H](O)[C@H](C)O2)[C@H](C)[C@@H](O[C@@H]2O[C@H](C)C[C@H](N(C)C)[C@H]2O)[C@](C)(O)C[C@@H](C)C(=O)[C@H](C)[C@@H](O)[C@]1(C)O` [ERY, Erythromycin]: the MIC in test [1] (setting [7]), in test [2] (setting [8]) and in test [3] (setting [9]) was less than 0.25 µg/mL in each case.
In the case of Amoxicillin/Clavulanic acid [AUG], in test [3] (MM33, ANO2 plate), the minimal inhibitory concentration (MIC) is on record as 4/2.
Consider `O=C(N[C@H](CO)[C@H](O)c1ccc([N+](=O)[O-])cc1)C(Cl)Cl` [CHL, Chloramphenicol], for which the MIC came to 8 µg/mL (≈ 24.8 µM) in test [1] (setting [4]), 4 µg/mL (≈ 12.4 µM) in test [2] (setting [5]) and 16 µg/mL (≈ 49.5 µM) in test [3] (setting [6]).
`CC(=O)NC[C@H]1CN(c2ccc(N3CCOCC3)c(F)c2)C(=O)O1` [LZD, Linezolid]: the values for the MIC in test [1] (setting [7]), in test [2] (setting [8]) and in test [3] (setting [9]) were 1 to 2 µg/mL (≈ 2.96 to 5.93 µM), 2 µg/mL (≈ 5.93 µM) and 4 to 8 µg/mL (≈ 11.9 to 23.7 µM), respectively.
`C[C@@H](O)[C@H]1C(=O)N2C(C(=O)O)=C(S[C@@H]3CN[C@H](C(=O)N(C)C)C3)[C@H](C)[C@H]12` [MERO, Meropenem]: the MIC in test [1] (setting [4]) was 8 µg/mL (≈ 20.9 µM); in test [2] (setting [5]), less than 0.5 µg/mL; in test [3] (setting [6]) it was 2 µg/mL (≈ 5.22 µM).
Consider `COc1c(N2CCNC(C)C2)c(F)cc2c(=O)c(C(=O)O)cn(C3CC3)c12` (stereo not shown) [GAT, Gatofloxacin], for which the MIC in test [1] (L. rhamnosus GG, GPN3F plate) is less than 1 µg/mL; in test [2] (GPN3F plate), less than 1 µg/mL; in test [3] (MM33, GPN3F plate), less than 1 µg/mL.
In the case of `CN(C)[C@@H]1C(O)=C(C(N)=O)C(=O)[C@@]2(O)C(O)=C3C(=O)c4c(O)cccc4[C@@](C)(O)[C@H]3C[C@@H]12` [TET, Tetracycline], the MIC in test [1] (setting [4]) is 1 µg/mL (≈ 2.25 µM); in test [1] (setting [7]) it was less than 2 µg/mL; in test [2] (setting [5]) it was 0.375 µg/mL (≈ 0.844 µM); in test [2] (setting [8]) it was less than 2 µg/mL; in test [3] (setting [6]), more than 8 µg/mL; in test [3] (setting [9]), more than 16 µg/mL.
On to `CO[C@H]1/C=C/O[C@@]2(C)Oc3c(C)c(O)c4c(O)c(c(/C=N/N5CCN(C)CC5)c(O)c4c3C2=O)NC(=O)/C(C)=C\C=C\[C@H](C)[C@H](O)[C@@H](C)[C@@H](O)[C@@H](C)[C@H](OC(C)=O)[C@@H]1C` [RIF, Rifampin], for which the MIC is less than 0.5 µg/mL in test [1] (setting [7]), more than 4 µg/mL in test [2] (setting [8]) and 0.5 to 1 µg/mL (≈ 0.608 to 1.22 µM) in test [3] (setting [9]).
For the compound `CCN1CCN(C(=O)N[C@@H](C(=O)N[C@@H]2C(=O)N3[C@@H]2SC(C)(C)[C@@H]3C(=O)O)c2ccccc2)C(=O)C1=O` [PIP, Piperacillin], the values for the MIC in test [1] (setting [4]), in test [2] (setting [5]) and in test [3] (setting [6]) were less than 4 µg/mL, less than 4 µg/mL and 8 µg/mL (≈ 15.5 µM), respectively.
On to `[H]/N=C(/N)N[C@H]1[C@H](O)[C@@H](O)[C@H](O[C@@H]2O[C@@H](C)[C@](O)(C=O)[C@H]2O[C@@H]2O[C@@H](CO)[C@H](O)[C@@H](O)[C@@H]2NC)[C@@H](N/C(N)=N\[H])[C@@H]1O` [STR, Streptomycin], for which the MIC in test [1] (setting [7]), in test [2] (setting [8]) and in test [3] (setting [9]) was less than 1000 µg/mL in each case.
For `C[C@H]1COc2c(N3CCN(C)CC3)c(F)cc3c(=O)c(C(=O)O)cn1c23` [LEVO, Levofloxacin], the MIC was 2 to 4 µg/mL (≈ 5.53 to 11.1 µM) in test [1] (setting [7]), 0.5 µg/mL (≈ 1.38 µM) in test [2] (setting [8]) and more than 8 µg/mL in test [3] (setting [9]).
For `CCCCCCCCCC(=O)N[C@@H](Cc1c[nH]c2ccccc12)C(=O)N[C@H](CC(N)=O)C(=O)N[C@@H](CC(=O)O)C(=O)N[C@@H]1C(=O)NCC(=O)N[C@@H](CCCN)C(=O)N[C@@H](CC(=O)O)C(=O)N[C@H](C)C(=O)N[C@@H](CC(=O)O)C(=O)NCC(=O)N[C@H](CO)C(=O)N[C@@H]([C@H](C)CC(=O)O)C(=O)N[C@@H](CC(=O)c2ccccc2N)C(=O)O[C@@H]1C` [DAP, Daptomycin] the same measures were 2 µg/mL (≈ 1.23 µM), 0.5 to 1 µg/mL (≈ 0.309 to 0.617 µM) and 1 µg/mL (≈ 0.617 µM).
As to Oxacillin + 2% NaCl [OXA+], the MIC in test [1] (L. rhamnosus GG, GPN3F plate) is 0.25 to 0.5 µg/mL; in test [2] (GPN3F plate), 1 µg/mL; in test [3] (MM33, GPN3F plate), 2 µg/mL.
`O=C(O)c1cn(C2CC2)c2cc(N3CCNCC3)c(F)cc2c1=O` [CIP, Ciprofloxacin]: the MIC in test [1] (setting [7]) worked out at 1 µg/mL (≈ 3.02 µM); in test [2] (setting [8]), 2 µg/mL (≈ 6.04 µM).
Consider `CCC[C@@H]1C[C@@H](C(=O)N[C@@H]([C@H]2O[C@H](SC)[C@H](O)[C@@H](O)[C@H]2O)[C@H](C)Cl)N(C)C1` [CLI, Clindamycin], for which the MIC is 0.5 µg/mL (≈ 1.18 µM) in test [1] (setting [4]); less than 0.12 µg/mL in test [1] (setting [7]); 0.5 µg/mL (≈ 1.18 µM) in test [2] (setting [5]); 0.25 µg/mL (≈ 0.588 µM) in test [2] (setting [8]); less than 0.25 µg/mL in test [3] (setting [6]); less than 0.12 µg/mL in test [3] (setting [9]).
For `Cc1ncc([N+](=O)[O-])n1CCO` [MRD, Metronidazole], the MIC in test [1] (setting [4]), in test [2] (setting [5]) and in test [3] (setting [6]) was more than 16 µg/mL in each case.
Turning to `CO[C@@]1(NC(=O)C2SC(=C(C(N)=O)C(=O)O)S2)C(=O)N2C(C(=O)O)=C(CSc3nnnn3C)CS[C@@H]21` (stereo partly shown) [TANS, Cefotetan], the MIC in test [1] (setting [4]), in test [2] (setting [5]) and in test [3] (setting [6]) was more than 64 µg/mL throughout.
In the case of Quinupristin/Dalfopristin [SYN], the minimal inhibitory concentration (MIC) was 1 to 2 µg/mL in test [1] (L. rhamnosus GG, GPN3F plate); 4 µg/mL in test [2] (GPN3F plate); 1 µg/mL in test [3] (MM33, GPN3F plate).
For `C[C@@H](O)[C@H]1C(=O)N2C(C(=O)O)=C(SCCN=CN)C[C@H]12` [IMI, Imipenem], the results for the MIC in test [1] (setting [4]), in test [2] (setting [5]) and in test [3] (setting [6]) were 2 µg/mL (≈ 6.68 µM), 0.25 µg/mL (≈ 0.835 µM) and 0.5 µg/mL (≈ 1.67 µM), respectively.
For `CC1(C)S[C@@H]2[C@H](NC(=O)[C@H](NC(=O)N3CCN(S(C)(=O)=O)C3=O)c3ccccc3)C(=O)N2[C@H]1C(=O)O` [MEZ, Mezlocillin] the same measures were less than 4 µg/mL, less than 4 µg/mL and 8 µg/mL (≈ 14.8 µM).
For Ampicillin/Sulbactam [A/S], the minimal inhibitory concentration (MIC) in test [3] (MM33, ANO2 plate) is on record as 4/2.
For the compound Piperacillin/Tazobactam [P/T], the MIC in test [1] (L. rhamnosus GG, ANO2 plate) was 1/4; in test [2] (ANO2 plate), 2/4; in test [3] (MM33, ANO2 plate) it was 8/4.
Take Penicillin: the MIC in test [1] (L. rhamnosus GG, ANO2 plate) is 0.5 µg/mL; in test [1] (L. rhamnosus GG, GPN3F plate), 0.5 µg/mL; in test [2] (ANO2 plate) it was 0.5 µg/mL; in test [2] (GPN3F plate) it was 0.25 to 0.5 µg/mL; in test [3] (MM33, ANO2 plate), 1 µg/mL; in test [3] (MM33, GPN3F plate), 0.5 µg/mL.
As for `CO/N=C(\C(=O)N[C@@H]1C(=O)N2C(C(=O)O)=C(CSc3nc(=O)c(=O)[nH]n3C)CS[C@H]12)c1csc(N)n1` [AXO, Ceftriaxone], the values for the MIC in test [1] (setting [7]), in test [2] (setting [8]) and in test [3] (setting [9]) were 32 to 64 µg/mL (≈ 57.7 to 115 µM), less than 8 µg/mL and 16 µg/mL (≈ 28.9 µM), respectively.

For the origin of these results see patent publication US20110236359A1 (priority 2007, published 2011).
